{"source": "patent US20240018480A1", "about": "“ENHANCEMENT OF EXTRACELLULAR VESICLE PRODUCTION BY LYSOSOME INHIBITOR” (ExoTop Theragnostics Inc., priority 2022, published 2024)", "key": {"human CD63 (hCD63) gene": {"system": "human CD63 (hCD63) gene", "assay": "RT-qPCR of hCD63 gene expression in MSCs cultured in different media", "type": "cell-based", "settings": "FIG. 2B", "method": "(§1) Mesenchymal stem cells were seeded on the plate at a density of ˜5000 cells/cm^2 and the plate was placed in 5% CO2 humidified incubator. One day after the incubation, the culture media was aspirated to remove non-adherent cells and switched with a fresh media. The plate was incubated again. After further culturing for around 3 to 5 days, the culture media was aspirated and replaced by CDPF and/or lysosome inhibitor medium. The cells were cultured in the CDPF and/or lysosome inhibitor medium for 12, 24, or 48 hours. After the designated period of culturing, the culture media was collected and cell lysis buffer was immediately added to the cells on the plate. The collected media and cell lysate were each independently subjected to detection of the level of CD63 by ELISA and by qPCR, respectively.\nTo compare hCD63+ expression in MSCs cultured in various media including CCM, CDPF, and CDPF with lysosome inhibitor, RT-quantitative real-time PCR (RT-qPCR) assays were performed."}, "human MSCs [1]": {"system": "human MSCs", "assay": "CD63 ELISA of culture media collected after culture with stem cells (secretion of EVs)", "type": "cell-based", "settings": "FIG. 3A", "method": "as §1, with “5000” for “˜5000”\nTo quantitatively compare CD63+ expression in CM cultured in various media including CCM, CDPF, and CDPF with lysosome inhibitor, enzyme-linked immunosorbent (ELISA) assays were performed."}, "human MSCs [2]": {"system": "human MSCs", "assay": "Intracellular acidification of MSCs, acidic organelles stained by lysotracker red", "type": "cell-based", "settings": "MSCs in CDPF with lysosome inhibitor vs CCM and CDPF, FIG. 2A", "method": "as §1\nHuman MSCs were cultured in different media including complete culture medium (CCM), CDPF, and CDPF with lysosome inhibitor. The acidic organelles in live stem cells were stained by lysotracker red. […] Without lysosome inhibitor, the intracellular acidification was not suppressed."}, "[3]": {"system": "fatty acid synthase (FASN)", "assay": "qPCR relative quantification (RQ) of fatty acid synthase (FASN) in MSCs", "type": "cell-based, human", "settings": "FIG. 3C"}, "[4]": {"settings": "MSCs in CDPF with lysosome inhibitor, RT-qPCR"}}, "note": "Entries after “also recorded” stand apart in the source; their conditions may differ."}
{"compound": "CCN(CC)CCCC(C)Nc1ccnc2cc(Cl)ccc12", "note": "(stereo not drawn) [lysosome inhibitor, chloroquine]", "values": [{"measurement": "expression of human CD63 gene in the MSCs (in words)", "setting": "human CD63 (hCD63) gene; CDPF with lysosome inhibitor vs CCM, CDPF, qPCR", "result": "increased; also recorded: dramatic increase"}, {"measurement": "expression of hCD63+ gene, times higher than MSCs cultured in CCM", "setting": "human CD63 (hCD63) gene; [4]", "result": "about 10 times"}, {"measurement": "expression of hCD63+ gene, times higher than MSCs cultured in CDPF without lysosome inhibitor", "setting": "human CD63 (hCD63) gene; [4]", "result": "about 5 times"}, {"measurement": "secretion of EVs (CD63-positive particles) from stem cells to the cultured media (in words)", "setting": "human MSCs [1]; Ly_Inhibitor+CDPF vs CCM and CDPF, CD63 ELISA", "result": "stimulated"}, {"measurement": "EV production (CD63+ particles), times higher than MSCs cultured in CCM or in CDPF without lysosome inhibitor", "setting": "human MSCs [1]; MSCs in CDPF with lysosome inhibitor, CD63 ELISA of media", "result": "about 2.3 times"}, {"measurement": "intracellular acidification of human MSCs", "setting": "human MSCs [2]", "result": "suppressed"}, {"measurement": "expression of FASN, times higher than MSCs cultured in CCM", "setting": "[3]; MSCs in CCM with lysosome inhibitor, RT-qPCR", "result": "about 25 times"}, {"measurement": "expression of FASN, times higher than MSCs cultured in CDPF without lysosome inhibitor", "setting": "[3]; [4]", "result": "about 5 times"}, {"measurement": "gene expression of FASN (in words)", "setting": "[3]; treatment with the inhibitor, qPCR RQ", "result": "drastically induced"}]}
